Assay results published in US20130156857A1, “Pharmaceutical Compositions Containing Diacerein” (TWI BIOTECHNOLOGY, INC., priority 2008, published 2013).
Values after ≈ are worked out from the molar mass of the structure shown. Where two headings read alike, the source gives them in different places.

Legend:
[1] = cited from earlier work
[2] = in vivo; cited from earlier work
[3] = Solubility and stability of diacerein at ambient temperature for one hour; type: physicochemical
Text: (§1) The tables below indicate the solubility and stability of diacerein in buffer solutions with different pH values. […] The degradation products including rhein increase at a pH above 5. The poor stability of diacerein in the intestinal environment may result in incomplete absorption and cause poor and variable bioavailability. Moreover, one of the increased degradants in the intestinal environment, rhein, has been suspected to be a major factor in stimulating colon mucosa and results in diarrhea. Accordingly, methods to stabilize diacerein during gastro-intestinal absorption might improve its bioavailability as well as the side effect of diarrhea. The stabilization methods for use with diacerein may include the addition of acidifying or buffering agents or complexation with cyclodextrins.

[4] = Solubility and stability pH profile of diacerein at ambient temperature for 48 hours; type: physicochemical; conditions: for Proportion of Diacerein and its degradants: Diacerein / solubility at 48 h: 48 hours; for solubility at 48 h: thermodynamic from solid, read-out: Total solubility
Text: as §1

[5] = cited from earlier work; remark: listed apart in the source
[6] = cited from earlier work; remark: listed apart in the source

CC(=O)Oc1cccc2c1C(=O)c1c(OC(C)=O)cc(C(=O)O)cc1C2=O [Diacerein, 4,5-bis(acetyloxy)-9,10-dioxo-2-anthracene carboxylic acid]
diarrhea or soft stools occurred in the patients ([1]; 3-year clinical study, diacerein twice a day with meals): up to 30% | severity of diarrhea ([1]; occurs within the first two weeks of treatment): mild-to-moderate | conversion before reaching the systemic circulation [2]: entirely converted into rhein | Proportion of Diacerein and its degradants: Diacerein ([3]; final pH 6.55*): 90% | Proportion of Diacerein and its degradants: Diacerein ([3]; final pH 6.70*): 83% | Proportion of Diacerein and its degradants: Diacerein ([4]; 0.01N HCl, final pH 1.98, ambient temperature): 100% | Proportion of Diacerein and its degradants: Diacerein ([4]; 50 mM NaH2PO4, final pH 3.03, ambient temperature): 100% | Proportion of Diacerein and its degradants: Diacerein ([4]; 50 mM NaH2PO4, final pH 4.17, ambient temperature): 100% | Proportion of Diacerein and its degradants: Diacerein ([4]; 50 mM NaH2PO4, final pH 5.04, ambient temperature): 60% | Proportion of Diacerein and its degradants: Diacerein ([4]; 50 mM NaH2PO4, final pH 5.97, ambient temperature): 77% | Proportion of Diacerein and its degradants: Diacerein ([4]; 50 mM NaH2PO4, final pH 6.55, ambient temperature): 45% | Proportion of Diacerein and its degradants: Diacerein ([4]; 50 mM NaH2PO4, final pH 6.70, ambient temperature): 34% | solubility at 48 h ([4]; 50 mM NaH2PO4 buffer, aqueous buffer, 50 mM NaH2PO4, final pH 3.03, ambient temperature): 0.35 µg/mL (≈ 0.95 µM) | solubility at 48 h ([4]; 50 mM NaH2PO4 buffer, aqueous buffer, 50 mM NaH2PO4, final pH 4.17, ambient temperature): 0.43 µg/mL (≈ 1.17 µM) | Proportion of Diacerein and its degradants: Diacerein ([4]; 0.1N HCl, final pH 1.17, ambient temperature): 100% | Proportion of Diacerein and its degradants: Diacerein ([4]; Water, final pH 5.79, ambient temperature): 90% | solubility at 48 h ([4]; buffer solution (0.01N HCl), simulated gastric fluid, 0.01N HCl, final pH 1.98, ambient temperature): 0.15 µg/mL (≈ 0.407 µM) | solubility in buffer solution ([4]; pH below 4.17): relatively low | stability in buffer solution ([4]; pH below 4.17): stable | solubility at 48 h ([4]; simulated gastric fluid, 0.1N HCl, final pH 1.17, ambient temperature): 0.17 µg/mL (≈ 0.462 µM) | Oral bioavailability [5]: 35-56% | bioavailability with feeding ([5]; oral, feeding): 43-70% | solubility in water [6]: practically insoluble

O=C(O)c1cc(O)c2c(c1)C(=O)c1cccc(O)c1C2=O [Rhein]
conjugated in the liver to rhein glucuronide [2]: 60% | conjugated in the liver to rhein sulfate [2]: 20% | eliminated by the renal route [2]: 20%
